Measurements reported in US20170176446A1, “Methods for Determining the Oncogenic Condition of Cell, Uses Thereof, and Methods for Treating Cancer” (INSERM (INSTITUT NATIONAL DE LA SANTE ET DE LA RECHERCHE …, priority 2009, published 2017).

Columns and labels:
NK cell = settings: concentrations between 1 and 20 μM; cited from earlier work
IL10 = IL10 gene expression in THP1 cells treated with OCDO; assay type: cell-based, human; settings: 10 μM OCDO, 4 hours
Experimental: (§1) The THP1 cells (human myeloid cell line supplied by ATCC) are cultured with a culture medium of DMEM type (Dulbecco's modified eagle medium) supplemented with 10% of fetal calf serum and a mixture of antibiotics. The THP1 cells are treated with 10 μM of OCDO for 4 hours. The RNAs are extracted according to a conventional procedure. The complementary DNAs are produced, and then used to measure the expression of the genes of interest. The expression of the genes encoding interleukin 12 (IL12) and interleukin 10 (IL10) were studied, these interleukins representing a pair of cytokines with antagonistic properties. IL12 is an immunostimulatory cytokine, whereas IL10 is an immunosuppressive cytokine. The expression ratio of these two cytokines makes it possible to evaluate the immunosuppressor or immunostimulatory potential of the cell and its ability to promote tumor progression or, on the contrary, to slow it down.
(§2) The primers used correspond to the human sequences of IL10 and of IL12 and are the following: […]

TT cells [1] = experiment: Effect of OCDO on TT cell proliferation in vitro; assay type: cell-based, human; settings: 5 μM OCDO, 4 days of treatment, versus solvent
Experimental: (§3) a) In this example 2, the human medullary thyroid carcinoma cell line TT (American Tissues and Cells Collection) was used. This line is cultured in an F12K medium modified by Kaighn (sold by the company Invitrogen), containing 10% by weight of fetal calf serum and 2.5 ml of a solution of antibiotics (penicillin/streptomycin) at […]. The OCDO tested comes from the company Steraloids. In order to study in vitro the effect of OCDO on cell growth, the TT cells are seeded on to six-well plates (200 000 cells per well) in an F12K medium as defined above. The TT cells are treated every two days either with a solvent (ethanol at 0.1% in PBS phosphate buffer) or with amounts of OCDO in the solvent resulting in concentrations of 0.1, 1, 2.5 or 5 μM. The cells are counted 4 days after seeding. […] At the OCDO concentration of 5 μM, a proliferation induction factor of 1.5 is measured after 4 days of treatment; the induction of proliferation is therefore established in vitro for OCDO concentrations of between 100 nM and 5 μM. […] The animals (5 or 10 mice per group) are monitored regularly in order to measure tumor development. The volume of the tumors is calculated according to the formula L×l^2×0.5, where L is the length and l is the width of the tumor. […]

IL12 = IL12 gene expression in THP1 cells treated with OCDO; assay type: cell-based, human; settings: 10 μM OCDO, 4 hours
Experimental: as §1, §2

[2] = test system: phorbol ester-binding protein; settings: cited from earlier work
TT cells [3] = experiment: Effect of OCDO on TT tumors implanted in Swiss nude mice; assay type: in vivo
Experimental: as §3
The animals were euthanized after 75 days of treatment and the tumor and the various organs were removed in order to be analyzed histologically. […]

T lymphocytes = settings: concentrations between 1 and 20 μM; cited from earlier work
leukocyte = settings: concentrations between 1 and 20 μM; cited from earlier work
[4] = test system: T lymphocytes originating from human serum; settings: concentrations between 1 and 20 μM; cited from earlier work
TS/A cells = experiment: Tumor size of TS/A tumors implanted in BALB/c mice, intratumoral treatment; assay type: in vivo; settings: for Tumor size (% control): tamoxifen 10 μM, 100 μl intratumorally once a day
Experimental: A cell culture of TS/A cells was first performed. These TS/A cells are mouse mammary adenocarcinomas (see Nanni P et al., Clin. Exp. Metastasis, 1983 October-December; 1(4): 373-80). The cells are cultured, at 37° C. under 5% CO2, in a DMEM medium supplemented with 2 g/liter of sodium carbonate, 1.2 mM of glutamine (pH 7.4 at 23° C.), 5% of fetal bovine serum (Gibco) and 2.5 ml of antibiotics per liter of medium (penicillin/streptomycin).
The TS/A cells are recovered with trypsin, washed twice and suspended in PBS buffer. The TS/A cells (approximately 4×10^6 […] cells/0.1 ml) are then injected subcutaneously into the flank of 6-week-old female BALB/c mice (supplied by Charles River). […] The animals (10 mice per group) are monitored regularly for tumor development. The volume of the tumors is calculated according to the following formula: L×l^2×0.5 (L is the length and l is the width of the tumor). The experiment was reproduced twice. The results are given in FIG. 18 (the arrow indicates the beginning of the treatment).

ChEH [5] = target: T1, ChEH (Mus musculus, UniProt P70245); experiment: Conversion of [14C]CEα in cells of healthy mouse tissues with or without tamoxifen; assay type: cell-based; settings: incubation with tamoxifen
T1 construct: evaluated in cells of various healthy mouse tissues; from tissue; host or cells: cells from various healthy mouse organs
T1 sequence (P70245 whole entry): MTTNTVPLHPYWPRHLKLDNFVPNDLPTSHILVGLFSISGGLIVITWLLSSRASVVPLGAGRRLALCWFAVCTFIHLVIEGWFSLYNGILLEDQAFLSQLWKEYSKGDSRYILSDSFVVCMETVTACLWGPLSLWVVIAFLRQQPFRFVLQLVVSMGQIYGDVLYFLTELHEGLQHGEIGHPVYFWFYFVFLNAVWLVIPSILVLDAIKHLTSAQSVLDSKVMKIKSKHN

ChEH [6] = target: T2, ChEH (Homo sapiens, UniProt Q15125); experiment: Inhibition of ChEH activity in MCF7 cells (TLC of [14C]CE conversion); assay type: cell-based; settings: tamoxifen 0.01-5 μM with [14C]CEα; PBPE 0.01-10 μM with [14C]CEβ
T2 construct: MCF7 tumor cells, which originate from the American Tissue Culture Collection (ATCC), were used; host or cells: MCF7
T2 sequence (Q15125 whole entry): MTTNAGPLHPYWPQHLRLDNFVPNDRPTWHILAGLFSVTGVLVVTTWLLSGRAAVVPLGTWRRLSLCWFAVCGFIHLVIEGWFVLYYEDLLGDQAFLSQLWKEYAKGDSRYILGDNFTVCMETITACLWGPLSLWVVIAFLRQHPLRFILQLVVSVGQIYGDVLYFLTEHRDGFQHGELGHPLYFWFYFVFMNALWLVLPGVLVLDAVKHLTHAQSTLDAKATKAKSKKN
Experimental: For this experiment, an aminoalkyl sterol included in French patent 2 838 741 (and also see: de Medina et al., J Med Chem: 2009, vol. 52, No. 23, p. 7765-7777), having the formula: 6-N-[2-(3H-imidazol-4-yl)ethylamino]cholestane-3β,5α-diol (DDA), was chosen. […]
A thin-layer chromatography was carried out, the plate of which has been reproduced in FIG. 23. On this plate, the incubation is carried out, for lane 1, with [^14C]CE; for lane 2, with [^14C]CT; for lane 3, with the vehicle solvent, which is the same as that used for assays 1 to 5; for lane 4, with [14C]CE and 0.1 μM of the aminoalkyl sterol; and for lane 5, with [^14C]CE and a concentration of 1 μM of the aminoalkyl sterol.

MCF7 cells = experiment: OCDO production by MCF7 cells incubated with [14C]CE, thin-layer chromatography; assay type: cell-based, human
Text: For assays 1 to 5 and in some of the examples given later in this patent application, MCF7 tumor cells, which originate from the American Tissue Culture Collection (ATCC), were used. […] It is desired to study the activity of ChEH in […] cells by silica thin-layer chromatography. The compounds that it is desired to visualize are the CE and CT compounds defined above. In order to visualize the spots corresponding to CE and CT on a chromatography plate, ^14C-labeled CE and CT compounds were synthesized.
In order to be used in assays 1 to 5 which follow, the cells are seeded into 6-well plates at a density of 80 000 cells in a volume of 2 ml. […] After the incubation time desired for the assay, the medium is collected, the cells are washed with cold PBS (phosphate buffer) (2 ml per well) which is pooled with the medium. The cells are then scraped into cold PBS (1 ml for 3 wells); the wells are again rinsed with cold PBS (1 ml for 3 wells). The cell suspension obtained is centrifuged at 1000 rpm for 5 min at 4° C. […] Throughout the rest of this description, the vehicle solvent used is the same as that defined above.
The aqueous and organic radioactivities are counted. The organic phases are brought to dryness under argon. The residue is resuspended in 60 μl of ethanol and then deposited, in a proportion of 20 μl per lane, on to the glass-backed silica plates (Whatman LK-6-DF, 20×20), which are used in the various assays (these plates having been preheated at 100° C. for 1 hour). The migration solvent used is ethyl acetate. The chromatography plates are placed in contact with a “phosphor-screen” plate in a cassette overnight. […] In order to evaluate the more or less dense nature of the spots obtained on the plates, the radioactivity is quantified by densitometry with the “Imagequant”™ computer program.
Generally, in order to establish the percentages of OCDO inhibition from the thin-layer chromatography (TLC) plates obtained as in assay 2, the radioactive metabolites are identified and quantified on the basis of said plates using a europium-sensitive plate of GP Phosphor screen type (GE Healthcare) and a Storm 840 phosphorimagor (GE Healthcare). The proportion of radiolabeled oxysterols is determined on the autoradiogram obtained by densitometry using the Image Quant 5.2 software. The percentage is calculated on the basis of the ratio between the amount of oxysterols quantified divided by the sum of the amounts of oxysterols (CEE+CE+CT+OCDO). Since the CEE (CE ester) originates exclusively from the CE, the percentage CE is calculated on the basis of the ratio (CE+CEE)/(CE+CEE+CT+OCDO).
Assay 2 given above was therefore completed by measuring the amounts of the products present when the MCF7 tumor cells are incubated as indicated in detail in assay 2.
In order to establish that the link that exists between, on the one hand, the ability of various compounds to inhibit OCDO in an MCF7 tumor cell and, on the other hand, their quality as a ChEH inhibitor, is well-founded, the inhibition coefficients Ki for ChEH relating to a certain number of products was calculated and the production of OCDO by MCF7 cells after incubation of the cells with the same products was measured according to the protocol defined in assay 2 of the present patent application.

OCDO = OCDO content of TS/A tumors by GC/MS; assay type: in vivo, mice; settings: tamoxifen 10 μM, 100 μl intratumorally once a day
Experimental: 5 volumes (relative to the mass removed) of buffer (50 mM Tris-HCl, 150 mM KCl, pH=7.4) are added. The tumors are ground and the homogenates are centrifuged for 5 minutes at 2500 rpm at 4° C. […] After centrifugation (to separate the phases), the organic phase is recovered. The organic phase is evaporated to dryness and then the residue is taken up with 0.5 ml of chloroform. The organic extracts are filtered on 0.5 ml silica cartridges. The polar sterols are eluted sequentially:
1) 0.5 ml of a hexane/chloroform mixture (1/1), 2) 0.5 ml of chloroform, 3) 0.5 ml of ethyl acetate and methanol.
The ethyl acetate fractions are evaporated, silylated (50 μl 1/1 acetonitrile/BSTFA) and then analyzed by GC/MS (2 μl) according to the conditions described above.

Compound	NK cell toxicity in mice (NK cell)	expression of the immunosuppressive cytokine IL10 (IL10)	proliferation induction factor (TT cells [1])	expression of the cytokine IL12 (IL12)	binding to a phorbol ester-binding protein [2]	tumor volume versus control animals treated with the solvent (TT cells [3]; OCDO 50 μg/kg subcutaneously once a day, 5 days out of 7)	invasion of the lymph nodes versus solvent (TT cells [3]; OCDO 50 μg/kg, after 75 days of treatment)	cytolytic activity produced by T lymphocytes in mice (T lymphocytes)	leukocyte mobility (leukocyte)	rosette formation by T lymphocytes [4]	Tumor size (% control) (TS/A cells; Day 28)	Tumor size (% control) (TS/A cells; Day 37)	tumor mass (TS/A cells; tumor removed on day 28 from one treated animal, control animal tumor 2 g) [g]	formation of CT from [14C]CEα in healthy mouse tissue cells (ChEH [5])	inhibition of the ChEH activity (3 days) in MCF7 cells (ChEH [6])	% OCDO (MCF7 cells; MCF7 cells, [14C]CEα, three days, concentration given with each compound, share of labeled oxysterols) [%]	OCDO production by MCF-7 (% control) (MCF7 cells; concentration in μM in parentheses after each molecule, control = 100)	OCDO (% control) (OCDO; Day 28)	OCDO (% control) (OCDO; Day 37)
CC(C)CCC[C@@H](C)[C@H]1CC[C@H]2[C@@H]3CC(=O)[C@@]4(O)C[C@@H](O)CC[C@]4(C)[C@H]3CC[C@]12C [OCDO, 6-oxo-cholestane-3β,5α-diol]	induce NK cell toxicity	stimulates the expression	1.5	reduces the expression	binds to a phorbol ester-binding protein	almost three times larger	Twice as much invasion of the lymph nodes	inhibit the cytolytic activity produced by T lymphocytes	inhibit leukocyte mobility	inhibit rosette formation by T lymphocytes									
CC/C(=C(\c1ccccc1)c1ccc(OCCN(C)C)cc1)c1ccccc1 [Tamoxifen, 2-[4-[(Z)-1,2-di(phenyl)but-1-enyl]phenoxy]-N,N-dimethylethanamine]											73.5 ± 8	46.2 ± 7	1.45	the CT compound no longer appears	Dose-dependent inhibition	6.9	<1	19.2 ± 4	8.4 ± 4
